{
  "source": "patent US20230038373A1",
  "about": "“STABILE CONJUGATE” (Glykos Biomedical OY, priority 2019, published 2023)",
  "key": {"mannosidase I [1]": {"system": "mannosidase I", "assay": "ADC activity in SK-BR-3 cells after incubation of the ADC in human and mouse sera", "assay_type": "cell-based", "conditions": "7 days' incubation in both human and mouse sera, then 10 nM in SK-BR-3 culture for three days"}, "[2]": {"system": "HCC-1954 xenograft tumors", "assay": "HCC-1954 xenograft: N-glycan profiling of tumors and tissues after ADC dosing", "assay_type": "in vivo, mice (Balb/cAnNRj-Foxn1nu-nu)", "conditions": "three 10 mg/kg i.v. doses, tumors collected on day 8", "description": "The study was performed at the TCDM/Central Animal Laboratory, University of Turku, Finland, according to the appropriate ethical committee approval. Cells for inoculation to mice were prepared in vigorous exponential growth phase. 5 million cells in 50% Matrigel were inoculated s.c. to the flank of each mouse. Clinical signs and general behavior of the animals was observed regularly. […] Tumor growth was followed by palpation. After caliper measurement, tumor volume was calculated according to 0.5×length×width^2. The first dosings were administered when average tumor volume reached […]. Mice were evenly divided into study groups so that each group received similar distribution of different-sized tumors and the average tumor volumes were similar in each group. The mice received two additional dosings at 3 days and 6 days after the first dosing. Control mice received no dosings. At the end of the study on day 8 after the first dosing, the mice were sacrificed and representative samples of the tumors, blood (serum), liver, spleen, skin and muscle were taken and frozen for analyses.\nTest substances were prepared as described above. […] The samples were subjected to N-glycan profiling with MALDI-TOF MS essentially as described above."}, "processing α-mannosidase [3]": {"system": "processing α-mannosidase", "assay": "N-glycan profile of HCC-1954 cancer cells after kifunensine or ADC", "assay_type": "cell-based", "conditions": "HCC-1954 cells, 3-4 days; 10 pM kifunensine; 10 nM or 100 nM ADC", "description": "(§1) JIMT-1 cancer cells (DSMZ-German Collection of Microorganisms and Cell Cultures; variable/medium HER2 expression) and HCC-1954 cancer cells (ATCC; high HER2 expression) were cultured according to the manufacturers' instructions in standard cell culture conditions and incubated for 3-4 days with either […] kifunensine or trastuzumab-kifunensine ADCs. Effect on N-glycan profiles of the cells was analyzed by isolating cellular N-glycans and MALDI-TOF MS as described above."}, "processing α-mannosidase [4]": {"system": "processing α-mannosidase", "assay": "N-glycan profile of JIMT-1 cancer cells after kifunensine or ADC", "assay_type": "cell-based", "conditions": "JIMT-1 cells, 3-4 days", "description": "as §1"}, "[5]": {"assay": "Stability of kifunensine ester compounds in buffered cell culture medium (MALDI-TOF MS)", "assay_type": "physicochemical", "conditions": "5 days' incubation in buffered cell culture medium at +37° C.; signal vs hydrolysis product kifunensine", "description": "(§2) Serum was obtained from laboratory mice according to ethical permission, or from healthy human volunteers, and prepared with standard procedures. Buffer stability test were performed either in phosphate-buffered saline (PBS, Gibco) or standard cell culture medium recommended for SK-BR-3 cells by the ATCC (about neutral pH). Payload-linker molecules were incubated in serum, buffer or medium, after which the incubation mixture was analyzed by MALDI-TOF MS as described above. […] Similar studies were also conducted with the 33DFTG-ester compounds, further verifying the observation of stabilization by carboxylic acid modifications of the ester against esterase hydrolysis. However, all the kifunensine ester compounds, when applied in 10 μM concentration to SK-BR-3 cell culture for three days, were active in mannosidase I inhibition (as shown by MALDI-TOF MS analysis of neutral N-glycans of the SK-BR-3 cells after the incubation as described below), showing that regardless of the relative protection from serum esterase hydrolysis, the esters could still be hydrolysed in cells to liberate the active payload."}, "[6]": {"assay": "Stability of kifunensine ester compounds in mouse serum (MALDI-TOF MS)", "assay_type": "in vitro ADME", "conditions": "4 days' incubation in mouse serum at +37° C.", "description": "as §2"}, "[7]": {"system": "B16-F10 melanoma subcutaneous tumor", "assay": "Syngeneic B16-F10 melanoma subcutaneous tumor model", "assay_type": "in vivo, C57BL/6J mice", "conditions": "day 15; three 10 mg/kg doses on days 2, 7 and 12 (i.v.; anti-PD-1 i.p.); control group 1534 mm^3", "description": "Treatment groups (n=7) were administered with three 10 mg/kg intravenous infusions of antibody or ADC to the tail vein in PBS on days 2, 7 and 12 after subcutaneous inoculation of 0.5 million B16-F10 cells in each mouse. Anti-PD-1 antibody (n=7) was administered by intraperitoneal injection. Control mice (n=5) received no injections. Plotting of the average tumor size was stopped when first mouse in the group was killed due to tumor growth.\nTumor growth was followed by palpation. After caliper measurement, tumor volume was calculated according to 0.5×length×width^2. The first dosings were administered 2 days after inoculation and subsequent doses at 5 days' intervals. Mice were randomly divided into study groups.\nThe B16-F10 tumor-bearing mice (strain C57BL/6J) were administered as described above with three 10 mg/kg i.v. (intravenous infusion to the tail vein in PBS) doses each of avelumab, avelumab-cyclo-MeMe-kifunensine (DAR=21-28) and avelumab-AANA-kifunensine (DAR=8) as well as with three 10 mg/kg i.p. (intraperitoneal injection in PBS) doses of anti-mouse-PD-1 antibody (InvivoMAb, clone RMP1-14, rat IgG2a kappa). Control mice received no injections. All study groups included 7 tumor-bearing mice while the control group included 5 tumor-bearing mice."}, "mannosidase I [8]": {"system": "mannosidase I", "assay": "N-glycan profiling of SK-BR-3 cells after inhibitor/ADC treatment (mannosidase I inhibition)", "assay_type": "cell-based", "conditions": "10 μM, 3 days", "method": "SK-BR-3 breast cancer cells (ATCC) were cultured in recommended conditions and incubated with glycosylation inhibitors and ADCs for three days. The cells were then subjected to N-glycan profiling with MALDI-TOF MS essentially as described in Leijon et al. 2017, J Clin Endocrinol Metab 102(11):3990-4000, although without the deparaffinization step."}, "[9]": {"system": "immature dendritic cells (iDCs) with SK-BR-3 cells", "assay": "Dendritic cell activation assay (iDC / SK-BR-3 co-culture, fractalkine secretion)", "assay_type": "cell-based, human", "conditions": "5 nM test compound", "excerpt": "Monocytes were isolated from human peripheral blood (buffy coat) from healthy adult donors (Finnish Red Cross Blood Service) by using magnetic-activated microbead based cell sorting for CD14 positive cells (Miltenyi Biotec). Monocytes were differentiated to immature dendritic cells (iDCs) by using Mo-DC Differentiation Medium (Miltenyi Biotec) according the manufacturer's instructions. On day 6, to analyze cell surface expression of maturation markers, the iDCs were labeled with specific monoclonal antibodies for CD209 (R&D Systems) and CD14 (eBioscience). Nonspecific antibody binding was assessed using appropriate isotype controls. The iDCs were used for co-culture experiment on day 7.\nSK-BR-3 cells (ATCC) were cultured in DMEM (Gibco) containing GlutaMAX and supplemented with 10% heat-inactivated fetal bovine serum (FBS, Gibco). SK-BR-3 cells were plated in 96-well plate (5000 c/well) in the presence or absence of […] kifunensine (Carbosynth Limited) and cultured for 5 days. Before start of the co-culture, SK-BR-3 cells were washed twice with RPMI 1640 medium (Gibco). Differentiated iDCs were collected and 0.11×10^6 cells/well were added together with the test compounds to SK-BR-3 cells and cells were incubated for 24 h at +37° C. in 5% CO2. The experiment medium was RPMI 1640 medium (Gibco) containing 10 mM Hepes and 2 mM glutamine and supplemented with 10% FBS (Gibco). All treatments were performed as duplicates. […] Phorbol 12-myristate 13-acetate (PMA, Abcam) was used as positive control. After 24 h co-culture of iDCs and SKBR-3 cells, the cell supernatants were collected and centrifuged (3000 g, 5 min, +4° C.) to remove cells and debris. The supernatants were frozen and subjected to cytokine and chemokine analysis with Human Cytokine 48-Plex Discovery Assay (EVE Technologies, Canada)."}, "[10]": {"conditions": "SK-BR-3 + iDCs 24 h co-culture, SK-BR-3 pretreated with 10 pM kifunensine for 5 days"}},
  "note": "“And” between values parts separate entries of the source, which are not always exact repeats. Identical values can stand only once.",
  "data": [
    {"molecule": "trastuzumab-[DBCO-PEG4-(octakis-amino)-γ-cyclodextrin-(9-(di-3-thio-propanoyl)-kifunensine)7]4 [trastuzumab-cyclo-kifunensine]", "values": [
      {"measurement": "reduction of activity after serum incubation", "setting": "mannosidase I [1]", "result": "over 50%"},
      {"measurement": "average mannose residues (Man) in the Man5-9GlcNAc2 glycan signal series of tumors", "setting": "[2]", "result": 7.36},
      {"measurement": "proportion of complex-type N-glycans in the tumors", "setting": "[2]", "result": 11, "unit": "%"},
      {"measurement": "proportion of high-mannose type N-glycans of the total neutral N-glycans in the tumors", "setting": "[2]", "result": 78, "unit": "%"}
    ]},
    {"molecule": "trastuzumab-[GalNAz-DBCO-PEG4-(octakis-amino)-γ-cyclodextrin-(9-(4-methyl-4-thio-butanoyl-3-thiopropanoyl)-kifunensine)7]4 [trastuzumab-cyclo-Me-kifunensine]", "values": [
      {"measurement": "average mannose residues (Man) in the Man5-9GlcNAc2 glycan signal series of tumors", "setting": "[2]", "result": 7.40},
      {"measurement": "proportion of complex-type N-glycans in the tumors", "setting": "[2]", "result": 10, "unit": "%"},
      {"measurement": "proportion of high-mannose type N-glycans of the total neutral N-glycans in the tumors", "setting": "[2]", "result": 80, "unit": "%"},
      {"measurement": "relative proportion of complex-type N-glycans", "setting": "processing α-mannosidase [3]", "result": "drastically diminished"},
      {"measurement": "N-glycan profile change (Man9 increase, complex-type decrease) relative to HCC-1954 cells", "setting": "processing α-mannosidase [4]", "result": "less intensive"}
    ]},
    {"molecule": "CC[C@H](C)C(=O)OC[C@@H]1[C@@H](O)[C@H](O)[C@H](O)[C@H]2NC(=O)C(=O)N12", "note": "[6-(2-methyl)butanoyl-kifunensine, 9-(2-methylbutanoyl)-kifunensine ester]", "values": [
      {"measurement": "stability against chemical hydrolysis in neutral pH", "setting": "[5]", "result": "reasonably stable"},
      {"measurement": "compound detected after incubation in mouse serum (ester hydrolysis)", "setting": "[6]", "result": "not detected on day 4"}
    ]},
    {"molecule": "avelumab: recombinant fully human IgG1 anti-PD-L1 antibody (Bavencio)", "values": [
      {"measurement": "average tumor volume", "setting": "[7]", "result": 472, "unit": "mm^3"}
    ]},
    {"molecule": "CCCC(=O)OC[C@@H]1[C@@H](O)[C@H](O)[C@H](O)[C@H]2NC(=O)C(=O)N12", "note": "[6-butanoyl-kifunensine, 9-butanoyl-kifunensine ester]", "values": [
      {"measurement": "stability against chemical hydrolysis in neutral pH", "setting": "[5]", "result": "reasonably stable"},
      {"measurement": "compound detected after incubation in mouse serum (ester hydrolysis)", "setting": "[6]", "result": "not detected on day 4"}
    ]},
    {"molecule": "O=C1N[C@@H]2[C@@H](O)[C@@H](O)[C@H](O)[C@@H](CO)N2C1=O", "note": "[kifunensine]", "values": [
      {"measurement": "average number of mannose residues (Man) in the Man5-9GlcNAc2 glycan signal series", "setting": "mannosidase I [8]", "result": "over 8.5"},
      {"measurement": "relative proportion of complex-type N-glycans", "setting": "processing α-mannosidase [3]", "result": "drastically diminished"},
      {"measurement": "N-glycan profile change (Man9 increase, complex-type decrease) relative to HCC-1954 cells", "setting": "processing α-mannosidase [4]", "result": "less intensive"},
      {"measurement": "Fractalkine", "setting": "[9]; [10]", "result": "121 pg/mL and 120.94 pg/mL"}
    ]},
    {"molecule": "CC(C)(C)C(=O)OC[C@@H]1[C@@H](O)[C@H](O)[C@H](O)[C@H]2NC(=O)C(=O)N12", "note": "[6-(2,2-dimethyl)propanoyl-kifunensine, 9-(2,2-dimethylpropionyl)-kifunensine ester]", "values": [
      {"measurement": "stability against chemical hydrolysis in neutral pH", "setting": "[5]", "result": "reasonably stable"},
      {"measurement": "compound detected after incubation in mouse serum (ester hydrolysis)", "setting": "[6]", "result": "still present"}
    ]},
    {"molecule": "O=C(O)CCC(=O)OC[C@@H]1[C@@H](O)[C@H](O)[C@H](O)[C@H]2NC(=O)C(=O)N12", "note": "[6-succinyl-kifunensine, 9-succinyl-kifunensine]", "values": [
      {"measurement": "stability against chemical hydrolysis in neutral pH", "setting": "[5]", "result": "reasonably stable"},
      {"measurement": "compound detected after incubation in mouse serum (ester hydrolysis)", "setting": "[6]", "result": "still present"}
    ]},
    {"molecule": "CCCCCCCCCCCCCC(=O)O[C@@H]1[C@@H](C)[C@@]2(O)[C@@H](C=C(CO)C[C@]3(O)C(=O)C(C)=C[C@@H]23)[C@@H]2C(C)(C)[C@]12OC(C)=O", "note": "[PMA, Phorbol 12-myristate 13-acetate]", "values": [
      {"measurement": "Fractalkine", "setting": "[9]; [10]", "result": 158.90, "unit": "pg/mL"},
      {"measurement": "Fractalkine", "setting": "[9]; SK-BR-3 + iDCs 24 h co-culture, without kifunensine pretreatment", "result": 45.18, "unit": "pg/mL"},
      {"measurement": "Fractalkine", "setting": "[9]; iDCs without SK-BR-3 cells", "result": 8.27, "unit": "pg/mL"}
    ]}
  ]
}
